The subject of data set [1] is normal human mammary epithelial cells (HMEC). The data set can be described thus: Clonogenic cell survival, HMEC. Format: cell-based. To be noted: 100 μM BSO, 1 μM DTPP 24 h, 500 nM AUR 15 min. As for the experimental part:
FIGS. 1A-D: BSO, DTPP and AUR treated SUM159, MDA-MB231 and HMEC Clonogenic survival. In Panel A (SUM 159), B (MDA-MB231) and C(HMEC), 150,000 cells/dish SUM159 or MDA-MB231 and 300,000 cells/dish were plated in 60 mm tissue culture dishes. After 48 hours, cells were given fresh complete HMECs media and treated with 100 μM BSO+/1 μM DTPP for 24 hours. 500 nM AUR were added 15 mins before the trypsinization of cells for clonogenic survival assay. In panel A-C, The error bars represent mean±1 SD of n=1 treatment dishes done in 3 separate experiments where each treatment dish was used to prepare 6-10 replicate cloning dishes for analysis. *p<0.001 as compared to Control. […] Mice growing Sum159 xenograft tumors were treated with 100 μM DTPP in drinking water for 2 weeks followed by i.p. injections of BSO 675 mg/kg followed in 2 hrs with Au 2.7 mg/kg. The day following injections tumors were harvested, digested and stained for ALDH positive cells. Each bar represents an average of at least three tumors. Error bars are SEM. *p<0.05 vs. control.
FIG. 2: BSO and AUR treated SUM159 dose response Clonogenic survival. 150,000 cells/dish SUM159 were plated in 60 mm tissue culture dishes. After 48 hours, cells were given fresh complete HMECs media and treated with 100 μM BSO 24 hours. 500 nM AUR were added 15 mins, 30 mins, 45 mins, 1 hr, 1.5 hrs and 3 hrs before the trypsinization. Cells were then collected and plated for clonogenic survival. […]
Clonogenic cell survival: To determine whether the DTPP exposure alters the cell proliferation in MDA-MB231, SUM159 and HMECs, 150,000 cells/dish of MDA-MB231 and SUM159 cells, and 300,000 cells/dish HMECs were plated in 60 mm tissue culture dishes. […] Attached and floating cells in the experimental dishes were collected after trypsinization with 1× trypsin-EDTA (CellGro, Herndon, Va., USA), centrifuged, resuspended in fresh media, and counted using a Coulter counter. […]

Data set [2] concerns thioredoxin reductase (TRR). The data set can be described thus: Thioredoxin reductase activity assay in treated SUM159 cells. To be noted: for TRR activity: control 135. Format: cell-based, human. As for the experimental part: FIG. 8: Intracellular thioredoxin reductase (TRR) activity measured in BSO, DTPP, and AUR exposed SUM159 cells. Asynchronously growing cultures of SUM159 were plated and treated as described in FIG. 1. Cells were harvested and scraped in PBS at 4° C. Whole cell homogenates were used for biochemical analysis of thioredoxin reductase activity. Errors represent Mean±1 SD of 4 samples from two separate experiments (n=4). *p<0.001 as compared to Control.
Thioredoxin Reductase Assay: Thioredoxin Reductase activity was measured by using Thioredoxin Reductase Assay Kit purchased from Sigma (St Louis, Mo.). 400,000 cells/100 mm dishes of SUM159 cells were plated and treated with BSO, DTPP and AUR as described above. When cells were grown to 70-80% confluency on 100 mm dishes and scraped in PBS at 4° C., centrifuged, and the cell pellets were frozen at −20° C. until analysis. The assay was performed according to manufacturer's instructions. Briefly, working buffer containing 100 mM KPO4, pH 7.0, 10 mM EDTA, and 0.24 mM NADPH was prepared, and samples were added with working buffer along with 5,5′-dithiobis-(2-nitrobenzoic acid) (Eliman's reagent, DTNB). The rate of DTNB's reduction to 2-nitro-5-thiobenzoate (TNB) was then measured spectrophotometrically at […]. For each sample, this reaction was replicated, in tandem, with the sample in the presence of an inhibitor to thioredoxin reductase (TrxR), included with the kit. The difference between the sample rate with and without the TrxR inhibitor was taken to be the difference caused by TrxR activity in the sample. Each sample was then normalized to protein, by using the Lowry protein assay, as described previously (Lowry, O. H.; Rosebrough, N.J.; Farr, A. L.; Randall, R. J. Protein measurement with the Folin phenol reagent. J Biol Chem 193:265-275; 1951). The thioredoxin reductase activity of each sample was then normalized as a percentage of that of the control cells.

The subject of another data set is SUM159 cells. In words: Glutathione analysis (total GSH, GSSG). Format: cell-based, human. Particulars: for % GSSG: untreated 1.13%. The procedure:
FIG. 18: Intracellular GSH&GSSG measured in BSO, DTPP, and AUR exposed SUM159 cells. Asynchronously growing cultures of SUM159 were plated and treated as described in FIG. 1. Cells were harvested and scraped in PBS at 4° C. Whole cell homogenates were used for biochemical analysis of total GSH & GSSG levels. Errors represent Mean ±1 SD of 4 samples from two separate experiments (n=4).
Glutathione analysis: SUM159 Cells were plated and treated with BSO, DTPP and AUR as described above. When cells were grown to 70-80% confluency on 100 mm dishes and scraped in PBS at 4° C., centrifuged, and the cell pellets were frozen at −20° C. until analysis. Samples were thawed and whole homogenates were prepared as described and total glutathione (GSH+GSSG) was determined using a recycling method (Spitz, D. R.; Malcolm, R. R.; Roberts, R. J. Cytotoxicity and metabolism of 4-hydroxy-2-nonenal and 2-nonenal in H2O2-resistant cell lines. Do aldehydic by-products of lipid peroxidation contribute to oxidative stress? Biochem J 267:453-459; 1990; Griffith, O. W. Determination of glutathione and glutathione disulfide using glutathione reductase and 2-vinylpyridine. Anal Biochem 106:207-212; 1980). All biochemical determinations were normalized to the protein content using the method of bicinchoninic acid protein assay.

Consider `CCCCS(=N)(=O)CCC(N)C(=O)O` [BSO, L-buthionine-[S,R]-sulfoximine, reference compound], for which the “cytotoxicity (clonogenic survival), in words” value (from here on “cytotoxicity”) in data set [1] is recorded as “did not cause any significant cytotoxicity”. The “effect on TRR activity, in words” value in data set [2] is recorded as “not capable of altering the TRR activity”. Further, in the data set with SUM159 cells (24 hours), the “total GSH, in words” value is recorded as “significant decreases in total GSH”. The “% GSSG” value in the data set with SUM159 cells is given as 4.88%.

As for `CCCCCCCCCC[P+](c1ccccc1)(c1ccccc1)c1ccccc1` [DTPP, Decyl-Triphenylphosphonium], in data set [1], the “cytotoxicity” value is reported as “did not cause any significant cytotoxicity”. Moreover, the “increase of TRR activity” value in data set [2] is listed as 2 fold. Moreover, in data set [2] (1 μM DTPP 24 h), the TRR activity stood at 311 mU/mg. Besides, in the data set with SUM159 cells, the “increase in GSSG and % GSSG compared to untreated cells” value was ~3 fold; the “% GSSG” value is given as 3.65%. The GSSG in the data set on SUM159 cells (untreated 0.06) was determined as 0.26 nmole GSSG/mg protein.

Consider `CC[PH](CC)(CC)[Au][S][C@@H]1O[C@H](COC(C)=O)[C@@H](OC(C)=O)[C@H](OC(C)=O)[C@H]1OC(C)=O` [AUR, S-triethylphosphinegold(I)-2,3,4,6-tetra-O-acetyl-1-thio-β-D-glucopyranoside], for which the “cytotoxicity” value in data set [1] is given as “did not cause any significant cytotoxicity”. The compound further registered a TRR activity in data set [2] (500 nM AUR 15 min) of 10 mU/mg protein. Besides, the “effect on glutathione metabolism, in words” value with SUM159 cells is “not capable of altering the glutathione metabolism”.

Values taken from US9801922B2, “Compositions and methods of treating cancer” (UNIVERSITY OF IOWA RESEARCH FOUNDATION, priority 2011, dated 2017).
